# Measured values from ChEMBL document CHEMBL5512656, “Tetrazole derivatives in the management of neurological disorders: Recent advances on synthesis and pharmacological aspects” (Eur J Med Chem, 2024).
# Tests used:
# [1] = Cytotoxicity against mouse NIH/3T3 cells incubated for 24 hrs by MTT assay
# Acetylcholinesterase [2] = biological target: T1, Acetylcholinesterase (Electrophorus electricus, UniProt O42275); test: Inhibition of electric eel AChE using acetylthiocholine iodide as substrate preincubated for 15 mins followed by substrate addition and measured after 30 mins by Ellman's method
# Mus musculus [3] = test: Anticonvulsant activity in ip dosed scPTZ induced Kunming mouse seizure model measured after 30 mins; assay type: functional; conditions: 0.5 h
# [4] = Inhibition of DA uptake in HEK293 cells transfected with human DAT by liquid scintillation counting analysis; assay type: functional, cell-based
# [5] = Inhibition of 5-HT uptake in HEK293 cells transfected with human SERT by liquid scintillation counting analysis; assay type: functional, cell-based
# [6] = Inhibition of DA uptake in HEK293 cells transfected with human DAT at 1 uM by liquid scintillation counting analysis; assay type: functional
# [7] = Inhibition of NE uptake in HEK293 cells transfected with human NET at 1 uM by liquid scintillation counting analysis; assay type: functional
# [8] = Inhibition of NE uptake in HEK293 cells transfected with human NET by liquid scintillation counting analysis; assay type: functional, cell-based
# [9] = Inhibition of 5-HT uptake in HEK293 cells transfected with human SERT at 1 uM by liquid scintillation counting analysis; assay type: functional
# Mus musculus [10] = test: Anticonvulsant activity in ip dosed scPTZ induced Kunming mouse seizure model; assay type: functional
# Mus musculus [11] = test: Anticonvulsant activity in ip dosed MES induced Kunming mouse seizure model; assay type: functional
# Acetylcholinesterase [12] = biological target: T1, Acetylcholinesterase; test: Inhibition of electric eel AChE using acetylthiocholine iodide as substrate incubated for 30 mins by Ellman's method
# [13] = Protection index, ratio of TD50 for neurotoxicity in ip dosed Kunming mouse to ED50 for anticonvulsant activity in ip dosed Kunming mouse; assay type: toxicity, organism-based; conditions: in vivo, read-out: PI
# Mus musculus [14] = test: Anticonvulsant activity in po dosed MES induced Kunming mouse seizure model; assay type: functional
# [15] = Neurotoxicity in ip dosed Kunming mouse after 15 mins by rotarod test; assay type: toxicity, organism-based; conditions: in vivo
# Mus musculus [16] = test: Antidepressant activity in Kunming mouse assessed as reduction in duration of immobility time at 30 mg/kg, ip by forced swim test; assay type: functional
# Mus musculus [17] = test: Anticonvulsant activity in ip dosed scPTZ induced Kunming mouse seizure model measured for 30 mins; assay type: functional; conditions: 0.5 h
# Mus musculus [18] = test: Anticonvulsant activity in ip dosed MES induced mouse seizure model measured after 0.5 and 4 hrs; assay type: functional
# Rattus norvegicus [19] = test: Anticonvulsant activity in po dosed MES induced Albino rat seizure model measured after 4 hrs; assay type: functional
# Rattus norvegicus [20] = test: Anticonvulsant activity in po dosed scPTZ induced Albino rat seizure model measured after 4 hrs; assay type: functional
# [21] = Neurotoxicity in ip dosed mouse by rotarod test; assay type: toxicity, organism-based; conditions: in vivo
# Mus musculus [22] = test: Antidepressant activity in Kunming mouse assessed as reduction in duration of immobility time at 40 mg/kg, ip by forced swim test; assay type: functional
# Acetylcholinesterase [23] = biological target: T1, Acetylcholinesterase; test: Inhibition of electric eel AChE using acetylthiocholine iodide as substrate preincubated for 10 mins followed by substrate addition and measured after 15 mins by Ellman's method
# Cholinesterase = Cholinesterase (Equus caballus, UniProt P81908); test: Inhibition of equine serum BChE using butyrylthiocholine chloride as substrate preincubated for 10 mins followed by substrate addition and measured after 15 mins by Ellman's method
# Mus musculus [24] = test: Antidepressant activity in Kunming mouse assessed as reduction in duration of immobility time at 50 mg/kg, ip by forced swim test; assay type: functional
# Mus musculus [25] = test: Anticonvulsant activity in ip dosed MES induced Kunming mouse seizure model measured after 0.5, 1, 2, and 4 hrs intervals; assay type: functional
# [26] = Neurotoxicity in ip dosed Kunming mouse by rotarod test; assay type: toxicity, organism-based; conditions: in vivo
# [27] = biological target: Cholinesterase (Equus caballus) (UniProt P81908); test: Inhibition of equine serum BChE using butyrylthiocholine iodide as substrate preincubated for 15 mins followed by substrate addition and measured after 30 mins by Ellman's method relative to control; conditions: time 45.0 min
# [28] = biological target: Acetylcholinesterase (Electrophorus electricus) (UniProt O42275); test: Inhibition of electric eel AChE using acetylthiocholine iodide as substrate preincubated for 15 mins followed by substrate addition and measured after 30 mins by Ellman's method relative to control; conditions: time 45.0 min
# Acetylcholinesterase (Electrophorus electricus), sequence (O42275 24-633 limits assumed): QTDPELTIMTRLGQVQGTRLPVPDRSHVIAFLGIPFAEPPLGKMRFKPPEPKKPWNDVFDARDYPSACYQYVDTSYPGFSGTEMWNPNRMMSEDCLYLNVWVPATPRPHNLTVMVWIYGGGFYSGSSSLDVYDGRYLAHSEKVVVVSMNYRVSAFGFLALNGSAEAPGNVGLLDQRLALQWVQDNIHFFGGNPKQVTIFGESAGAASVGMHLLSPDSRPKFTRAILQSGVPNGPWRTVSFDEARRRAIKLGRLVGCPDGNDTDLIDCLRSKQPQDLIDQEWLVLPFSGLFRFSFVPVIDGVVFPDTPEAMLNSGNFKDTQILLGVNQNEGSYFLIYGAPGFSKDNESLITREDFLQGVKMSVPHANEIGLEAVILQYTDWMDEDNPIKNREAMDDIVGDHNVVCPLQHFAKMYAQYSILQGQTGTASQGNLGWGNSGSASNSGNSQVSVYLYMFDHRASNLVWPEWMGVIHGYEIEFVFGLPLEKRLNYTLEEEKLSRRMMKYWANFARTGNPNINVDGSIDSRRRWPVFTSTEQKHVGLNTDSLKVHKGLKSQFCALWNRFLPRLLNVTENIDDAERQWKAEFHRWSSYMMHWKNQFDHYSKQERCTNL
# Cholinesterase, sequence (P81908 whole entry): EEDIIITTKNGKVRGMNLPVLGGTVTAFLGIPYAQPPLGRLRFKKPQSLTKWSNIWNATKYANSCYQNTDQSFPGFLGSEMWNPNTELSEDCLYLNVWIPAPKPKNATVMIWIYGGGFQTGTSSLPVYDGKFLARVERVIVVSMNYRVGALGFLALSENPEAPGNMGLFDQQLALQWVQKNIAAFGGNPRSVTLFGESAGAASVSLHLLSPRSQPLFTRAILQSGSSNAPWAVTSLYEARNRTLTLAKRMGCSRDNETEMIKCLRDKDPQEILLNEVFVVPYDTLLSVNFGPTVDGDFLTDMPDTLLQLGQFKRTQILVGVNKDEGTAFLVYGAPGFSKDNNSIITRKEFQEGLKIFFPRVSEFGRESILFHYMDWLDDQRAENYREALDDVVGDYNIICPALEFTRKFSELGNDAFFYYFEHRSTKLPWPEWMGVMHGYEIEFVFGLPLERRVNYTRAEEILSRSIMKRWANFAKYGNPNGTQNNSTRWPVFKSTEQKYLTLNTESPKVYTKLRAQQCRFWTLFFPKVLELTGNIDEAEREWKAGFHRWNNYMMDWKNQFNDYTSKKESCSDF
# T1 sequence (O42275 whole entry): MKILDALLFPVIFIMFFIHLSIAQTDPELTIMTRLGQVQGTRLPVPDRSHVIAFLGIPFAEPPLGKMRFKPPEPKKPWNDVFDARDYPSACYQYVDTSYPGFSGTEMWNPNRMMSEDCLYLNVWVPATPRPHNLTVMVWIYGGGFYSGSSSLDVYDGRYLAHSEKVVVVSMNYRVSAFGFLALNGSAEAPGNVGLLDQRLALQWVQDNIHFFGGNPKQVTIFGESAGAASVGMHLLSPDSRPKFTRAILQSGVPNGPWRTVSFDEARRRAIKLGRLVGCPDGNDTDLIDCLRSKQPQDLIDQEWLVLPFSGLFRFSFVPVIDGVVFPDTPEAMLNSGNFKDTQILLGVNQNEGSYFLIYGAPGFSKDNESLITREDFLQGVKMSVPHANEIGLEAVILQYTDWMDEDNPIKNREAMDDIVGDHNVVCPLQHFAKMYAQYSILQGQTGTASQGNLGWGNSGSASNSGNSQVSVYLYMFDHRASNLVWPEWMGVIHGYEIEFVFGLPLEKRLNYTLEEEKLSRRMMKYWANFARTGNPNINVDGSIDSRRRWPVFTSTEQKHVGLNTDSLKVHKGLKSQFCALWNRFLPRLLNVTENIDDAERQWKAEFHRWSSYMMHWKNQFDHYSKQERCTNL
# Cholinesterase (Equus caballus), sequence (P81908 whole entry): as the sequence (P81908 whole entry) above
smiles,measurement,setting,value
O=C(CCCSc1nnnn1-c1ccccc1)N/N=C/c1cccc(O)c1,IC50 at 24 h,[1]; NIH/3T3 cells,105000 nM
same,IC50,Acetylcholinesterase [2],76500 nM
O=C(CCCSc1nnnn1-c1ccccc1)N/N=C/c1ccccc1[N+](=O)[O-],IC50,Acetylcholinesterase [2],54700 nM
Clc1ccccc1-c1nnn[nH]1,ED50,Mus musculus [3],83.3 mg/kg
Clc1ccc(C(c2ccccc2)c2nnnn2CCCCN2CCC(Cc3ccccc3)CC2)cc1 (configuration not stated),IC50,[4],550 nM
same,IC50,[5],90 nM
same,inhibition at 1 µM,[6],67.8%
same,inhibition at 1 µM,[7],58.9%
same,IC50,[8],780 nM
same,inhibition at 1 µM,[9],88.9%
NC(=O)O[C@@H](Cn1ncnn1)c1ccccc1Cl [CENOBAMATE],ED50,Mus musculus [10],28.5 mg/kg
same,ED50,Mus musculus [11],9.8 mg/kg
O=C1c2ccccc2C[C@@H]1Sc1nnnn1-c1cccc([N+](=O)[O-])c1,IC50,Acetylcholinesterase [12],2860 nM
Clc1ccc(Oc2nn3nnnc3c3ccccc23)cc1,selectivity ratio,[13],67.1
same,ED50,Mus musculus [14],24 mg/kg
same,TD50 at 0.25 h,[15],456 mg/kg
same,ED50,Mus musculus [11],6.8 mg/kg
O=C1c2ccccc2C[C@@H]1Sc1nnnn1-c1ccccc1F,IC50,Acetylcholinesterase [12],4040 nM
O=C1c2ccccc2C[C@@H]1Sc1nnnn1-c1cccc(F)c1,IC50,Acetylcholinesterase [12],2630 nM
COc1ccc2c3c1O[C@H]1C[C@@H](O)C=C[C@@]31CCN(C)C2 [GALANTAMINE],IC50 at 24 h,[1]; NIH/3T3 cells,7280 nM
COc1ccc(Oc2nc3nnnn3c3ccccc23)cc1,Time,Mus musculus [16],85.2 s
Clc1ccc(C2Cc3nnnn3-c3ccsc32)cc1 (configuration not stated),ED50,Mus musculus [17],20.5 mg/kg
same,ED50,Mus musculus [18],9.5 mg/kg
CCC1(C)CC(=O)NC1=O (configuration not stated) [ETHOSUXIMIDE],ED50,Rattus norvegicus [19],> 500 mg/kg
same,ED50,Mus musculus [17],106 mg/kg
same,ED50,Rattus norvegicus [20],167 mg/kg
COc1ccc(C2Cc3nnnn3-c3ccsc32)cc1 (configuration not stated),ED50,Mus musculus [17],65.5 mg/kg
same,ED50,Mus musculus [18],44 mg/kg
Cc1ccccc1Cn1nnnc1-c1ccccc1C,TD50,[21],500 mg/kg
same,ED50,Mus musculus [18],12.7 mg/kg
FC(F)(F)c1ccc(C2Cc3nnnn3-c3ccsc32)cc1 (configuration not stated),ED50,Mus musculus [17],64.7 mg/kg
same,Time,Mus musculus [22],51.43 s
same,ED50,Mus musculus [18],23.4 mg/kg
O=C1NC(=O)C(c2ccccc2)(c2ccccc2)N1 [PHENYTOIN],ED50,Rattus norvegicus [19],28.1 mg/kg
same,ED50,Rattus norvegicus [20],> 500 mg/kg
CC1(c2ccc(F)cc2)CC(c2ccc(F)cc2)=C(C#N)/C(=C(/C#N)c2nnn[nH]2)N1 (configuration not stated),IC50,Acetylcholinesterase [23],2010 nM
same,IC50,Cholinesterase,38800 nM
Cc1ccccc1-n1c(C)nc2c(OCc3nnn(Cc4ccc(-c5ccncc5)cc4)n3)cccc2c1=O,ED50,Rattus norvegicus [19],12.9 mg/kg
same,ED50,Rattus norvegicus [20],> 100 mg/kg
FC(F)(F)c1ccccc1C1Cc2nnnn2-c2ccsc21 (configuration not stated),ED50,Mus musculus [17],26.2 mg/kg
same,Time,Mus musculus [22],68.43 s
same,ED50,Mus musculus [18],19 mg/kg
CNCCC(Oc1ccc(C(F)(F)F)cc1)c1ccccc1 (configuration not stated) [FLUOXETINE],Time,Mus musculus [16],61.3 s
same,Time,Mus musculus [24],17.83 s
same,Time,Mus musculus [22],54.21 s
CCCCCOc1nc2nnnn2c2ccccc12,Time,Mus musculus [16],112.3 s
Cc1ccc(-n2c(=O)c3ccccc3n3nnnc23)cc1,Time,Mus musculus [24],11.83 s
Cc1ccccc1-c1nn[nH]n1,selectivity ratio,[13],19.7
same,ED50,Mus musculus [25],9.6 mg/kg
same,TD50,[26],190 mg/kg
Cc1ccccc1-c1nnnn1Cc1cccc(F)c1,TD50,[21],450 mg/kg
same,ED50,Mus musculus [18],39.9 mg/kg
O=c1c2ccccc2n2nnnc2n1-c1ccccc1F,Time,Mus musculus [24],14.67 s
CN(C)C(=O)Oc1cccc([N+](C)(C)C)c1 [NEOSTIGMINE],IC50,Acetylcholinesterase [23],19 nM
same,IC50,Cholinesterase,8410 nM
O=C(CCCSc1nnnn1-c1ccccc1)N/N=C/c1cccc([N+](=O)[O-])c1,IC50,Acetylcholinesterase [2],42500 nM
NC(=O)N1c2ccccc2C=Cc2ccccc21 [CARBAMAZEPINE],ED50,Mus musculus [14],27.3 mg/kg
same,ED50,Mus musculus [18],11.8 mg/kg
Oc1cccc(/C=N/NCCCCc2nnnn2-c2ccccc2)c1,inhibition,[27],51.3%
Cc1ccccc1-n1c(C)nc2c(OCc3nnn(C(=O)c4ccc(N)cc4)n3)cccc2c1=O,ED50,Rattus norvegicus [19],10.9 mg/kg
same,ED50,Rattus norvegicus [20],48.4 mg/kg
Fc1ccc(C(c2ccc(F)cc2)c2nnnn2CCCCN2CCC(Cc3ccccc3)CC2)cc1,IC50,[4],58 nM
same,IC50,[5],453 nM
same,inhibition at 1 µM,[6],92.3%
same,inhibition at 1 µM,[7],81%
same,IC50,[8],298 nM
same,inhibition at 1 µM,[9],77.6%
COc1ccccc1C1=C(C#N)/C(=C(/C#N)c2nnn[nH]2)NC(C)(c2ccccc2OC)C1 (configuration not stated),IC50,Acetylcholinesterase [23],19300 nM
same,IC50,Cholinesterase,290 nM
O=C1c2ccccc2C[C@@H]1Sc1nnnn1-c1ccc(F)cc1,IC50,Acetylcholinesterase [12],3040 nM
Cc1cccc(-n2c(=O)c3ccccc3n3nnnc23)c1,Time,Mus musculus [24],16.5 s
Cc1ccccc1-n1nnnc1S[C@H]1Cc2ccccc2C1=O,IC50,Acetylcholinesterase [12],7560 nM
CCCCCCOc1nc2nnnn2c2ccccc12,Time,Mus musculus [16],62.2 s
O=[N+]([O-])c1cccc(/C=N/NCCCCc2nnnn2-c2ccccc2)c1,inhibition,[28],98.5%
same,IC50 at 24 h,[1]; NIH/3T3 cells,51.7 µg/mL
FC(F)(F)c1cccc(C2Cc3nnnn3-c3ccsc32)c1 (configuration not stated),Time,Mus musculus [22],73.63 s
COc1cc2c(cc1OC)C(=O)C(CC1CCN(Cc3ccccc3)CC1)C2 (configuration not stated) [DONEPEZIL],IC50 at 24 h,[1]; nih3t3,1260 nM
O=C1c2ccccc2C[C@@H]1Sc1nnnn1-c1ccc([N+](=O)[O-])cc1,IC50,Acetylcholinesterase [12],6670 nM
Cc1ccccc1-n1c(C)nc2c(OCc3nnn(S(=O)(=O)c4ccc(N)cc4)n3)cccc2c1=O,ED50,Rattus norvegicus [19],4.93 mg/kg
same,ED50,Rattus norvegicus [20],72.3 mg/kg
O=[N+]([O-])c1ccccc1/C=N/NCCCCc1nnnn1-c1ccccc1,inhibition,[28],92%
same,IC50 at 24 h,[1]; NIH/3T3 cells,55 µg/mL
